The first assay concerns NCI-H3122. Briefly: relative viability (nuclei count vs DMSO), 5 days (fraction); higher = more cells survive. The note with it: first compound 0.6325 µM. In a few lines:
(§1)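 Medians of duplicate plates are given as relative viability. That measure is the nuclei count in treated wells divided by the count in vehicle wells. Counts were taken on 4× images of lung cancer cell lines in 1536-well plates, 5 days after pin-tool dosing the day after seeding with one drug alone or a fixed anchor-drug dose plus five library-drug doses (not always all listed) in √10 steps.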
Take `COCC1(CO)C(=O)C2CCN1CC2` (stereo unspecified) [PRIMA-1MET] + COc1cccc2cc(-c3nc([C@H]4CC[C@H](C(=O)O)CC4)n4ncnc(N)c34)[nH]c12 [OSI-027] (partner 0.5 µM): the relative viability was found to be 0.871.

The same assay, now with this note: first compound 2 µM.
In turn, `COCC1(CO)C(=O)C2CCN1CC2` (stereo unspecified) [PRIMA-1MET] + CS(=O)(=O)CCNCc1ccc(-c2ccc3ncnc(Nc4ccc(OCc5cccc(F)c5)c(Cl)c4)c3c2)o1 [Lapatinib] (partner 2 µM) gave a relative viability of 1.03.

For `COCC1(CO)C(=O)C2CCN1CC2` (stereo unspecified) [PRIMA-1MET] + O=C(CCCCCCC(=O)Nc1ccccc1)NO [Vorinostat] (partner 1 µM), the relative viability stood at 0.686.

The assay is the same for the next values; noted with them: first compound 6.325 µM.
On to `COCC1(CO)C(=O)C2CCN1CC2` (stereo unspecified) [PRIMA-1MET] + CS(=O)(=O)CCNCc1ccc(-c2ccc3ncnc(Nc4ccc(OCc5cccc(F)c5)c(Cl)c4)c3c2)o1 [Lapatinib] (partner 2 µM), for which the relative viability was 0.996.

`COCC1(CO)C(=O)C2CCN1CC2` (stereo unspecified) [PRIMA-1MET] + O=C(CCCCCCC(=O)Nc1ccccc1)NO [Vorinostat] (partner 1 µM) returned a relative viability of 1.07.

`COCC1(CO)C(=O)C2CCN1CC2` (stereo unspecified) [PRIMA-1MET] + Cc1cc(Nc2cc(N3CCN(C)CC3)nc(Sc3ccc(NC(=O)C4CC4)cc3)n2)n[nH]1 [Tozasertib] (partner 0.1 µM) returned a relative viability of 0.388.

Compound `COCC1(CO)C(=O)C2CCN1CC2` (stereo unspecified) [PRIMA-1MET] + COc1cccc2cc(-c3nc([C@H]4CC[C@H](C(=O)O)CC4)n4ncnc(N)c34)[nH]c12 [OSI-027] (partner 0.5 µM) registered a relative viability of 0.74.

The same assay, now with this note: first compound 20 µM.
As for `COCC1(CO)C(=O)C2CCN1CC2` (stereo unspecified) [PRIMA-1MET] + CS(=O)(=O)CCNCc1ccc(-c2ccc3ncnc(Nc4ccc(OCc5cccc(F)c5)c(Cl)c4)c3c2)o1 [Lapatinib] (partner 2 µM), the relative viability amounted to 0.954.

`COCC1(CO)C(=O)C2CCN1CC2` (stereo unspecified) [PRIMA-1MET] + O=C(CCCCCCC(=O)Nc1ccccc1)NO [Vorinostat] (partner 1 µM): the relative viability came to 0.861.

Compound `COCC1(CO)C(=O)C2CCN1CC2` (stereo unspecified) [PRIMA-1MET] + Cc1cc(Nc2cc(N3CCN(C)CC3)nc(Sc3ccc(NC(=O)C4CC4)cc3)n2)n[nH]1 [Tozasertib] (partner 0.1 µM) registered a relative viability of 0.337.

Take `COCC1(CO)C(=O)C2CCN1CC2` (stereo unspecified) [PRIMA-1MET] + COc1cccc2cc(-c3nc([C@H]4CC[C@H](C(=O)O)CC4)n4ncnc(N)c34)[nH]c12 [OSI-027] (partner 0.5 µM): the relative viability amounted to 0.831.

Another assay deals with NCI-H358. The assay is described as above. The note with it: first compound 0.2 µM. Put shortly:
as §1
In turn, `COCC1(CO)C(=O)C2CCN1CC2` (stereo unspecified) [PRIMA-1MET] + CS(=O)(=O)CCNCc1ccc(-c2ccc3ncnc(Nc4ccc(OCc5cccc(F)c5)c(Cl)c4)c3c2)o1 [Lapatinib] (partner 2 µM) had a relative viability of 0.486.

The compound `COCC1(CO)C(=O)C2CCN1CC2` (stereo unspecified) [PRIMA-1MET] + O=C(CCCCCCC(=O)Nc1ccccc1)NO [Vorinostat] (partner 1 µM) came in with a relative viability of 0.82.

For the compound `COCC1(CO)C(=O)C2CCN1CC2` (stereo unspecified) [PRIMA-1MET] + Cc1cc(Nc2cc(N3CCN(C)CC3)nc(Sc3ccc(NC(=O)C4CC4)cc3)n2)n[nH]1 [Tozasertib] (partner 0.1 µM), the relative viability was determined as 0.105.

Take `COCC1(CO)C(=O)C2CCN1CC2` (stereo unspecified) [PRIMA-1MET] + COc1cccc2cc(-c3nc([C@H]4CC[C@H](C(=O)O)CC4)n4ncnc(N)c34)[nH]c12 [OSI-027] (partner 0.5 µM): the relative viability is 0.734.

The assay is the same for the next values; noted with them: first compound 0.6325 µM.
Compound `COCC1(CO)C(=O)C2CCN1CC2` (stereo unspecified) [PRIMA-1MET] + CS(=O)(=O)CCNCc1ccc(-c2ccc3ncnc(Nc4ccc(OCc5cccc(F)c5)c(Cl)c4)c3c2)o1 [Lapatinib] (partner 2 µM) had a relative viability of 0.431.

For the compound `COCC1(CO)C(=O)C2CCN1CC2` (stereo unspecified) [PRIMA-1MET] + O=C(CCCCCCC(=O)Nc1ccccc1)NO [Vorinostat] (partner 1 µM), the relative viability was found to be 0.695.

The same assay, now with this note: first compound 2 µM.
`COCC1(CO)C(=O)C2CCN1CC2` (stereo unspecified) [PRIMA-1MET] + O=C(CCCCCCC(=O)Nc1ccccc1)NO [Vorinostat] (partner 1 µM) returned a relative viability of 0.669.

The compound `COCC1(CO)C(=O)C2CCN1CC2` (stereo unspecified) [PRIMA-1MET] + Cc1cc(Nc2cc(N3CCN(C)CC3)nc(Sc3ccc(NC(=O)C4CC4)cc3)n2)n[nH]1 [Tozasertib] (partner 0.1 µM) yielded a relative viability of 0.098.

Regarding `COCC1(CO)C(=O)C2CCN1CC2` (stereo unspecified) [PRIMA-1MET] + COc1cccc2cc(-c3nc([C@H]4CC[C@H](C(=O)O)CC4)n4ncnc(N)c34)[nH]c12 [OSI-027] (partner 0.5 µM), the relative viability came to 0.653.

The assay is the same for the next values; noted with them: first compound 6.325 µM.
`COCC1(CO)C(=O)C2CCN1CC2` (stereo unspecified) [PRIMA-1MET] + CS(=O)(=O)CCNCc1ccc(-c2ccc3ncnc(Nc4ccc(OCc5cccc(F)c5)c(Cl)c4)c3c2)o1 [Lapatinib] (partner 2 µM) yielded a relative viability of 0.471.

For the compound `COCC1(CO)C(=O)C2CCN1CC2` (stereo unspecified) [PRIMA-1MET] + O=C(CCCCCCC(=O)Nc1ccccc1)NO [Vorinostat] (partner 1 µM), the relative viability was 0.786.

As to `COCC1(CO)C(=O)C2CCN1CC2` (stereo unspecified) [PRIMA-1MET] + Cc1cc(Nc2cc(N3CCN(C)CC3)nc(Sc3ccc(NC(=O)C4CC4)cc3)n2)n[nH]1 [Tozasertib] (partner 0.1 µM), the relative viability worked out at 0.117.

With `COCC1(CO)C(=O)C2CCN1CC2` (stereo unspecified) [PRIMA-1MET] + COc1cccc2cc(-c3nc([C@H]4CC[C@H](C(=O)O)CC4)n4ncnc(N)c34)[nH]c12 [OSI-027] (partner 0.5 µM), the relative viability is 0.954.

Still in this assay, the particulars now being: first compound 20 µM.
In turn, `COCC1(CO)C(=O)C2CCN1CC2` (stereo unspecified) [PRIMA-1MET] + CS(=O)(=O)CCNCc1ccc(-c2ccc3ncnc(Nc4ccc(OCc5cccc(F)c5)c(Cl)c4)c3c2)o1 [Lapatinib] (partner 2 µM) came in with a relative viability of 0.0399.

Take `COCC1(CO)C(=O)C2CCN1CC2` (stereo unspecified) [PRIMA-1MET] + O=C(CCCCCCC(=O)Nc1ccccc1)NO [Vorinostat] (partner 1 µM): the relative viability is 0.163.
